The subject of assay [1] is LU-01-0486 PDX model. It is filed as in vivo, Mus Musculus. Particulars: Docetaxel group. The method, then: The objective of this study was to evaluate the in vivo anti-tumor efficacy of BT1718 in the treatment of MT1-MMP low-expressing LU-01-0486 PDX model in female Balb/C nude mice
Each mouse was inoculated subcutaneously at the right flank with LU-01-0486 of tumor fragment (30 mm^3) for tumor development. The treatments was started when the average tumor volume reaches 164 mm^3.
All the procedures related to animal handling, care and the treatment in the study were performed following the guidance of the Association for Assessment and Accreditation of Laboratory Animal Care (AAALAC). At the time of routine monitoring, the animals were daily checked for any effects of tumor growth and treatments on normal behavior such as mobility, food and water consumption (by looking only), body weight gain/loss (body weights were measured twice weekly), eye/hair matting and any other abnormal effect as stated in the protocol. Death and observed clinical signs were recorded on the basis of the numbers of animals within each subset.
The major endpoint was to see if the tumor growth could be delayed or mice could be cured. Tumor size was measured two times weekly in two dimensions using a caliper, and the volume was expressed in mm^3 using the formula: V=0.5 a×b^2 where a and b are the long and short diameters of the tumor, respectively. The tumor size was then used for calculations of T/C value. […]
TGI was calculated for each group using the formula: TGI (%)=[1−(Ti−T0)/(Vi−V0)]×100; Ti is the average tumor volume of a treatment group on a given day, T0 is the average tumor volume of the treatment group on the day of treatment start, Vi is the average tumor volume of the vehicle control group on the same day with Ti, and V0 is the average tumor volume of the vehicle group on the day of treatment start. […]
A one-way ANOVA was performed to compare tumor volume among groups, and when a significant F-statistics (a ratio of treatment variance to the error variance) was obtained, comparisons between groups were carried out with Games-Howell test. All data were analyzed using Prism. […]

The target in assay [2] is MMP9 (Homo sapiens, UniProt P14780). As to the kind of experiment: Effect on related MMP catalytic activity. It is filed as biochemical. Particulars: in vitro. The method, then: (§1) A bicyclic constrained peptide binder (Bicycle) was identified that binds to the hemopexin domain of MT1 with an apparent Kd of approximately 2 nM. […] Bicycle drug conjugates (BDCs) with a variety of linkers and cytotoxic payloads were prepared which retained binding to MT1.
Sequence of MMP9 (P14780 94-707, species assumed): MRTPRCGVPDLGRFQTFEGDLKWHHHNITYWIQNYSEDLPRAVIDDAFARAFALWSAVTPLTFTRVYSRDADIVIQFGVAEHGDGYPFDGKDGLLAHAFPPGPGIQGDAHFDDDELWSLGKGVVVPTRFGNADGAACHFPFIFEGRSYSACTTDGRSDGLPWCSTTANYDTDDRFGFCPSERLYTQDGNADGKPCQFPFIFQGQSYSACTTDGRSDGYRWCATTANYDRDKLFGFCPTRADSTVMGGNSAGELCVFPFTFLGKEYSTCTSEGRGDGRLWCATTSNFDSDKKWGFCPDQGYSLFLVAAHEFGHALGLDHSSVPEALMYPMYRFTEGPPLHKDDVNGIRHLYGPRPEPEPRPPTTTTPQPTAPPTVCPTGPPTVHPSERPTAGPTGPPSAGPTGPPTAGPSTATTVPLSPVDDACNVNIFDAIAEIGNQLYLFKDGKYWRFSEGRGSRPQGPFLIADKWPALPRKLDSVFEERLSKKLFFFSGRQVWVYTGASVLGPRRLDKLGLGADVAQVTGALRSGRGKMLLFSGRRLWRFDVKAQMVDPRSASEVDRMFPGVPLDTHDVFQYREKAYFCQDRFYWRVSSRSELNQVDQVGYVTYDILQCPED

Assay [3] deals with T1, MMP2 (Homo sapiens, UniProt P08253). As to the kind of experiment: Effect on related MMP catalytic activity. It is filed as biochemical. The conditions noted are these: in vitro. The method, then: as §1
T1 sequence (P08253 110-660, species assumed): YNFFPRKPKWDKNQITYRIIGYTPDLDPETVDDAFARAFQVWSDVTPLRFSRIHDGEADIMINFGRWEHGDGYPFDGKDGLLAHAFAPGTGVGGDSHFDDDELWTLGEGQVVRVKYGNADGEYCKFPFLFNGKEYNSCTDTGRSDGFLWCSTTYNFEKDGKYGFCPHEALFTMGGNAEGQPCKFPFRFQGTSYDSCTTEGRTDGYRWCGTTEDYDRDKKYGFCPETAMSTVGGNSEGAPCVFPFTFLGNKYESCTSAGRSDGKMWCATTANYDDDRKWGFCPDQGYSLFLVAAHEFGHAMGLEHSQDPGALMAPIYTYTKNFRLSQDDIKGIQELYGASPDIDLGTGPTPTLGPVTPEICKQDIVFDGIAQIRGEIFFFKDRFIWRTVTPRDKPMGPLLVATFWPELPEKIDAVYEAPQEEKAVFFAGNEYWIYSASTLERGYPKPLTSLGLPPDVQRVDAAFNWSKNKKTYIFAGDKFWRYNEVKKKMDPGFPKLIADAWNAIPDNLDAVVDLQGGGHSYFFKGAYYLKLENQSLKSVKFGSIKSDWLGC
For assay [4], the target named is T2, MMP1 (Homo sapiens, UniProt P03956). Nature of the assay: Effect on related MMP catalytic activity. It is filed as biochemical. Particulars: in vitro. The procedure:
as §1

The test system of assay [5] is catalytic domain (MT1). Nature of the assay: Bicycle peptide binding to catalytic domain. The procedure: as §1
In assay [6] the target is MMP16 (Homo sapiens, UniProt P51512). Nature of the assay: Binding to related MMP family member.
Sequence of MMP16 (P51512 120-607, species assumed): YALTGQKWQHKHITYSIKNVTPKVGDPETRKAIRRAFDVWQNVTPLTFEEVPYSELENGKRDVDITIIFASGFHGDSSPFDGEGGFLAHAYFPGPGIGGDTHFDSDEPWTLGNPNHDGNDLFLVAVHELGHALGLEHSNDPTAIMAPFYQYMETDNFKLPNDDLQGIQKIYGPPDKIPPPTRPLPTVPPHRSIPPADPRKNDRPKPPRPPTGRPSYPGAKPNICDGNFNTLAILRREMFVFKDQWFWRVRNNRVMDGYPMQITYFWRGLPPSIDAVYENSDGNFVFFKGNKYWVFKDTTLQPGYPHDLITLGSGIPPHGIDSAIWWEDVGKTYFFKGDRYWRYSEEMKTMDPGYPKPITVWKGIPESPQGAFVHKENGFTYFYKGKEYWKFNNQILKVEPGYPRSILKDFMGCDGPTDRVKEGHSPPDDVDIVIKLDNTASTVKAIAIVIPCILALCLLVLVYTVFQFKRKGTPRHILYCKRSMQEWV
In assay [7] the target is MMP24 (Homo sapiens, UniProt Q9Y5R2). As to the kind of experiment: Binding to related MMP family member. The procedure: as §1
Sequence of MMP24 (Q9Y5R2 156-645, species assumed): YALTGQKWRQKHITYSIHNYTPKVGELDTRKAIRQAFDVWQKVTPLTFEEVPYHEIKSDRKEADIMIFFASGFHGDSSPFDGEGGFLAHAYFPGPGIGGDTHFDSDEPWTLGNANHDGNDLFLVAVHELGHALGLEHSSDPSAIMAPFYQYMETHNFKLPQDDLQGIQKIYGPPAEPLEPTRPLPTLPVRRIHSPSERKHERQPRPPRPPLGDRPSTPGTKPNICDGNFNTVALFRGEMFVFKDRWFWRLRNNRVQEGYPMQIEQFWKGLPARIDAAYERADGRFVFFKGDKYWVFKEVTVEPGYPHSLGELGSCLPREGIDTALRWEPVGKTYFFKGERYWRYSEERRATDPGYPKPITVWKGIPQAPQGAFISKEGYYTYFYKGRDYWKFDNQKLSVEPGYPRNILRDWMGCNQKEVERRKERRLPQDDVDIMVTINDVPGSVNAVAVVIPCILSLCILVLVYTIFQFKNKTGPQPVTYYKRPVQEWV
For assay [8], the target named is T1, MMP2. As to the kind of experiment: Binding to related MMP family member. The method, then:
as §1

In assay [9] the target is T2, MMP1. As to the kind of experiment: Binding to related MMP family member. The method, then: as §1
Assay [10] deals with cell migration or invasion. As to the kind of experiment: Effect on cell migration or invasion. It is filed as cell-based. Particulars: in vitro. The method, then: as §1
For assay [11], the target named is MT1 (Homo sapiens, UniProt P50281). As to the kind of experiment: Effect on catalytic activity of the protease in vitro. It is filed as biochemical. The method, then: as §1
In assay [12] the target is T3, Pro-MMP1 (Homo sapiens, UniProt P03956).
T3 construct: MMP1, Pro-MMP1, MMP2
T3 sequence (P03956 20-469 limits assumed): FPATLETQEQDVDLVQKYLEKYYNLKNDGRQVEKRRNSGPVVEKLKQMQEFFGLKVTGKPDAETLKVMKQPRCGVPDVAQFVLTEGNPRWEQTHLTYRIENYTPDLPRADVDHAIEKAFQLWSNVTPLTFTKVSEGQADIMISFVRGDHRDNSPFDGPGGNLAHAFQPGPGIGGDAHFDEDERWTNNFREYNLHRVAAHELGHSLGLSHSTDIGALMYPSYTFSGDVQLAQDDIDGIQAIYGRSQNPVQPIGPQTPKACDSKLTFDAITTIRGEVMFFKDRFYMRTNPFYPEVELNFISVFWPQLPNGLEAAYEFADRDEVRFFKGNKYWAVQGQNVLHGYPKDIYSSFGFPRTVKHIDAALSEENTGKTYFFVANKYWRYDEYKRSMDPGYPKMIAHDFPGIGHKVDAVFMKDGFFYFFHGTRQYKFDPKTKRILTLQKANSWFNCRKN
Nature of the assay: Binding to related MMP family member.

Assay [13] deals with MMP15 (Homo sapiens, UniProt P51511). As to the kind of experiment: Binding to related MMP family member.
Sequence of MMP15 (P51511 132-669, species assumed): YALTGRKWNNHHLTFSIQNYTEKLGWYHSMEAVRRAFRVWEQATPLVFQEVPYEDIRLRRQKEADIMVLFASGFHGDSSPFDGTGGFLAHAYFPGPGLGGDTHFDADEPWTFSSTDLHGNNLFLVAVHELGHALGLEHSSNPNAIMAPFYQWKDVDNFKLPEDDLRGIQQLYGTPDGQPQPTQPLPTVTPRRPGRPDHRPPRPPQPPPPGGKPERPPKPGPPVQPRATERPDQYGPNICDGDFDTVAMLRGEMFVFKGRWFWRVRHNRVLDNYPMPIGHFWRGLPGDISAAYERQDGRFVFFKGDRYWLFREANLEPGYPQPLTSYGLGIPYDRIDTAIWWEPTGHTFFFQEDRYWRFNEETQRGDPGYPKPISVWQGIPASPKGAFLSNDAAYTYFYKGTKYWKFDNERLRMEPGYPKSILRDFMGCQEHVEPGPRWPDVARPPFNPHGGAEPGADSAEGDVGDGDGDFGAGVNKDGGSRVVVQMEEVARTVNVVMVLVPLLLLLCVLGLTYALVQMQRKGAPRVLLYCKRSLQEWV

*1 amine or outer side, *2 acyl side, *3 side chain or, on linkers, in order; H or OH if unused. Where a SMILES comes first, the peptide text is derived from it. Bridges are numbered along the chain shown (N, C = ends). [ ]: non-standard residue; d: D form. 1Nal = N[C@@H](Cc1cccc2ccccc12)C(=O)O; TBMB = c1c(C[*:1])cc(C[*:3])cc1C[*:2]; Tle = CC(C)(C)[C@H](N)C(=O)O; βAla = NCCC(=O)O; Sar = CNCC(=O)O

T2 sequence (P03956 100-469, species assumed): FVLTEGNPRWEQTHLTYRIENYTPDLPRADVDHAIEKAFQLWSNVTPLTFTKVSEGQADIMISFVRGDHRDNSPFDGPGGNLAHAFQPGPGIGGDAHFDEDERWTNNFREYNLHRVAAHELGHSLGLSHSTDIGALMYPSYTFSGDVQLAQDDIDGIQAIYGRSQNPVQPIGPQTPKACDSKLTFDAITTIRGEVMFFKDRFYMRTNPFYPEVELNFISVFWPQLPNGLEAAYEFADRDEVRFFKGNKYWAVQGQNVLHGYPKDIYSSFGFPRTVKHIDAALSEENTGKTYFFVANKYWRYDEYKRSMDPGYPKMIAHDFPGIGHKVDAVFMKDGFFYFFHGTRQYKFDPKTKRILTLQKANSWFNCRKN

On to `CC(=O)O[C@@]12CO[C@@H]1C[C@H](O)[C@@]1(C)C(=O)[C@H](O)C3=C(C)[C@@H](OC(=O)[C@H](O)[C@@H](NC(=O)OC(C)(C)C)c4ccccc4)C[C@@](O)([C@@H](OC(=O)c4ccccc4)[C@H]21)C3(C)C` [Docetaxel, reference compound], for which, in assay [1], the tumor growth result is listed as “significant inhibition of tumor growth”.

Regarding `C[C@H](NC(=O)CN(C)C(=O)CN(C)C(=O)CN(C)C(=O)CN(C)C(=O)CN(C)C(=O)CN(C)C(=O)CN(C)C(=O)CN(C)C(=O)CN(C)C(=O)CN(C)C(=O)CCN)C(=O)N[C@H]1CSCc2cc3cc(c2)CSC[C@H](NC(=O)[C@@H](C)NC(=O)[C@H](Cc2cccc4ccccc24)NC(=O)[C@H](CCC(=O)O)NC(=O)[C@H](CC(N)=O)NC(=O)[C@@H](C)NC1=O)C(=O)N[C@@H](CCC(=O)O)C(=O)N[C@@H](CC(=O)O)C(=O)N[C@@H](Cc1ccccc1)C(=O)N[C@@H](Cc1ccc(O)cc1)C(=O)N[C@@H](CC(=O)O)C(=O)N[C@@H](C(C)(C)C)C(=O)N[C@H](C(N)=O)CSC3` [N241] (H-[βAla][Sar][Sar][Sar][Sar][Sar][Sar][Sar][Sar][Sar][Sar]AC[dA]NE[1Nal][dA]CEDFYD[Tle]C-NH2; linker 13-19-26 via TBMB; N-terminus and C-terminus assumed), the “impact on catalytic activity” value in assay [2], in [3], in assay [4] and in assay [11] was “no direct impact” throughout. The binding result in [5], in assay [6], in assay [7], in [8], in assay [9] and in assay [12] was “no binding” each time. For the same compound, the binding result in assay [13] was “no binding”. Besides, the “impact on cell migration or invasion” value in assay [10] was “no direct impact”.

Values taken from patent US10441663B2, “Methods for treating cancer” (Bicycle Therapeutics Limited, priority 2016, dated 2019).
